Results published in patent US20250041429A1, “COMPOUND HAVING BTK PROTEIN DEGRADATION ACTIVITY, AND MEDICAL USES THEREOF” (UBIX THERAPEUTICS, INC., priority 2021, published 2025).

Target: T1, BTK protein (Homo sapiens, UniProt Q06187)
T1 construct: endogenous in cells; host or cells: TMD-8 cells
Assay: Measurement of BTK protein degradation ability in TMD-8 cells (Western blotting)
Assay type: cell-based
Conditions: harvested after 24 hours; for BTK degradation (%) 1 nM: compound 1 nM; for BTK degradation (%) 10 nM: compound 10 nM; for BTK degradation (%) 100 nM: compound 100 nM
Outline: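 TMD-8 cells (1×10^6/mL) were treated for 24 h with compound at 0.1, 1, 10 μM or 0.0001–0.1 μM, with DMSO as vehicle control. RIPA lysates were normalized by BCA assay. BTK was detected by Western blot with anti-BTK, using GAPDH or β-actin as loading controls, and imaged on LI-COR Odyssey.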

T1 sequence (Q06187 whole entry): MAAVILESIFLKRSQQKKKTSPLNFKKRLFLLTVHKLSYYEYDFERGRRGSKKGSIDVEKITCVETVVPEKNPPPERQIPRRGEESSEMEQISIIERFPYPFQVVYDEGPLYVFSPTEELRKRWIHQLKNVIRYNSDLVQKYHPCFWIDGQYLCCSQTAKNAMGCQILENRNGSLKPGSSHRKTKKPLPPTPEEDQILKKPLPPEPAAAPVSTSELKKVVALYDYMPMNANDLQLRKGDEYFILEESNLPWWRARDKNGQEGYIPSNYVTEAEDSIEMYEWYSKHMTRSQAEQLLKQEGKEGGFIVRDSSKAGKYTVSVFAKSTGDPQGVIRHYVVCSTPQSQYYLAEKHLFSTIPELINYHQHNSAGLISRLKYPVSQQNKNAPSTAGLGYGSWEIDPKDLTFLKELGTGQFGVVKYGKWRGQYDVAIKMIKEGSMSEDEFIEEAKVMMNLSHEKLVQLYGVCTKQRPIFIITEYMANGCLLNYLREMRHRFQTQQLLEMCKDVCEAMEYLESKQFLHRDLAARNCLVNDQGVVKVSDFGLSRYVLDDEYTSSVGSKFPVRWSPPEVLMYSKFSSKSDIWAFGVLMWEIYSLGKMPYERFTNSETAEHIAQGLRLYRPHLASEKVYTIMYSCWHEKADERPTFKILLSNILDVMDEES

Cc1cc(-c2ccnc(Nc3ccc(C4CCN(CC5CCN(c6ccc(OC7CCC(=O)NC7=O)cc6)CC5)CC4)cc3)n2)ccc1CNC(=O)N1CC(OC(C)C)C1 (stereo not drawn) [Example 47, N-(4-(2-((4-(1-((1-(4-((2,6-dioxopiperidin-3-yl)oxy)phenyl)piperidin-4-yl)methyl)piperidin-4-yl)phenyl)amino)pyrimidin-4-yl)-2-methylbenzyl)-3-isopropoxyazetidine-1-carboxamide]
BTK degradation (%) 1 nM: 22.5%
BTK degradation (%) 10 nM: 93.5%
BTK degradation (%) 100 nM: 99.5%

Cc1cc(-c2ccnc(Nc3ccc(N4CCN(CC5CCN(c6ccc(OC7CCC(=O)NC7=O)cc6)CC5)CC4)cc3)n2)ccc1CNC(=O)c1cnn(C(C)C)c1 (stereo not drawn) [Example 48, N-(4-(2-((4-(4-((1-(4-((2,6-dioxopiperidin-3-yl)oxy)phenyl)piperidin-4-yl)methyl)piperazin-1-yl)phenyl)amino)pyrimidin-4-yl)-2-methylbenzyl)-1-isopropyl-1H-pyrazole-4-carboxamide]
BTK degradation (%) 1 nM: 53.5%
BTK degradation (%) 10 nM: 94.5%
BTK degradation (%) 100 nM: 99.0%

Cc1cc(-c2ccnc(Nc3ccc(C4CCN(CC5CCN(c6ccc(OC7CCC(=O)NC7=O)cc6)CC5)CC4)cc3)n2)ccc1CNC(=O)c1cnn(C(C)C)c1 (stereo not drawn) [Example 49, N-(4-(2-((4-(1-((1-(4-((2,6-dioxopiperidin-3-yl)oxy)phenyl)piperidin-4-yl)methyl)piperidin-4-yl)phenyl)amino)pyrimidin-4-yl)-2-methylbenzyl)-1-isopropyl-1H-pyrazole-4-carboxamide]
BTK degradation (%) 1 nM: 23.0%
BTK degradation (%) 10 nM: 87.0%
BTK degradation (%) 100 nM: 90.5%

Cc1cc(-c2ccnc(Nc3ccc(N4CCN(CC5CCN(c6ccc(OC7CCC(=O)NC7=O)cn6)CC5)CC4)cc3)n2)ccc1CNC(=O)N1CC(OC(C)C)C1 (stereo not drawn) [Example 50, N-(4-(2-((4-(4-((1-(5-((2,6-dioxopiperidin-3-yl)oxy)pyridin-2-yl)piperidin-4-yl)methyl)piperazin-1-yl)phenyl)amino)pyrimidin-4-yl)-2-methylbenzyl)-3-isopropoxyazetidine-1-carboxamide]
BTK degradation (%) 1 nM: 19.7%
BTK degradation (%) 10 nM: 82.0%
BTK degradation (%) 100 nM: 99.3%

Cc1cc(-c2ccnc(Nc3ccc(C4CCN(CC5CCN(c6ccc(OC7CCC(=O)NC7=O)cn6)CC5)CC4)cc3)n2)ccc1CNC(=O)N1CC(OC(C)C)C1 (stereo not drawn) [Example 51, N-(4-(2-((4-(1-((1-(5-((2,6-dioxopiperidin-3-yl)oxy)pyridin-2-yl)piperidin-4-yl)methyl)piperidin-4-yl)phenyl)amino)pyrimidin-4-yl)-2-methylbenzyl)-3-isopropoxyazetidine-1-carboxamide]
BTK degradation (%) 1 nM: 24.0%
BTK degradation (%) 10 nM: 86.7%
BTK degradation (%) 100 nM: 99.3%

Cc1cc(-c2ccnc(Nc3ccc(N4CCN(CC5CCN(c6ccc(NC7CCC(=O)NC7=O)cn6)CC5)CC4)cc3)n2)ccc1CNC(=O)N1CC(OC(C)C)C1 (stereo not drawn) [Example 52, N-(4-(2-((4-(4-((1-(5-((2,6-dioxopiperidin-3-yl)amino)pyridin-2-yl)piperidin-4-yl)methyl)piperazin-1-yl)phenyl)amino)pyrimidin-4-yl)-2-methylbenzyl)-3-isopropoxyazetidine-1-carboxamide]
BTK degradation (%) 1 nM: 24.0%
BTK degradation (%) 10 nM: 92.0%
BTK degradation (%) 100 nM: 99.3%

Cc1cc(-c2ccnc(Nc3ccc(C4CCN(CC5CCN(c6ccc(NC7CCC(=O)NC7=O)cn6)CC5)CC4)cc3)n2)ccc1CNC(=O)N1CC(OC(C)C)C1 (stereo not drawn) [Example 53, N-(4-(2-((4-(1-((1-(5-((2,6-dioxopiperidin-3-yl)amino)pyridin-2-yl)piperidin-4-yl)methyl)piperidin-4-yl)phenyl)amino)pyrimidin-4-yl)-2-methylbenzyl)-3-isopropoxyazetidine-1-carboxamide]
BTK degradation (%) 1 nM: 13.3%
BTK degradation (%) 10 nM: 86.7%
BTK degradation (%) 100 nM: 99.3%

Cc1cc(-c2ccnc(Nc3ccc(N4CCN(CC5CCN(c6cccc(NC7CCC(=O)NC7=O)c6)CC5)CC4)cc3)n2)ccc1CNC(=O)N1CC(OC(C)C)C1 (stereo not drawn) [Example 54, N-(4-(2-((4-(4-((1-(3-((2,6-dioxopiperidin-3-yl)amino)phenyl)piperidin-4-yl)methyl)piperazin-1-yl)phenyl)amino)pyrimidin-4-yl)-2-methylbenzyl)-3-isopropoxyazetidine-1-carboxamide]
BTK degradation (%) 1 nM: 38.7%
BTK degradation (%) 10 nM: 95.0%
BTK degradation (%) 100 nM: 99.7%

Cc1cc(-c2ccnc(Nc3ccc(N4CCN(CC5CCN(c6ccc(NC7CCC(=O)NC7=O)cc6)CC5)CC4)cc3)n2)ccc1CNC(=O)N1CC(OC(C)C)C1 (stereo not drawn) [Example 55, N-(4-(2-((4-(4-((1-(4-((2,6-dioxopiperidin-3-yl)amino)phenyl)piperidin-4-yl)methyl)piperazin-1-yl)phenyl)amino)pyrimidin-4-yl)-2-methylbenzyl)-3-isopropoxyazetidine-1-carboxamide]
BTK degradation (%) 1 nM: 37.7%
BTK degradation (%) 10 nM: 94.7%
BTK degradation (%) 100 nM: 99.7%

Cc1cc(-c2ccnc(Nc3ccc(C4CCN(CC5CCN(c6ccc(NC7CCC(=O)NC7=O)cc6)CC5)CC4)cc3)n2)ccc1CNC(=O)N1CC(OC(C)C)C1 (stereo not drawn) [Example 56, N-(4-(2-((4-(1-((1-(4-((2,6-dioxopiperidin-3-yl)amino)phenyl)piperidin-4-yl)methyl)piperidin-4-yl)phenyl)amino)pyrimidin-4-yl)-2-methylbenzyl)-3-isopropoxyazetidine-1-carboxamide]
BTK degradation (%) 1 nM: 13.7%
BTK degradation (%) 10 nM: 91.3%
BTK degradation (%) 100 nM: 99.7%

Cc1cc(-c2ccnc(Nc3ccc(N4CCN(CC5CCN(c6cccc(NC7CCC(=O)NC7=O)c6)CC5)CC4)cc3)n2)ccc1CNC(=O)c1cnn(C(C)C)c1 (stereo not drawn) [Example 57, N-(4-(2-((4-(4-((1-(3-((2,6-dioxopiperidin-3-yl)amino)phenyl)piperidin-4-yl)methyl)piperazin-1-yl)phenyl)amino)pyrimidin-4-yl)-2-methylbenzyl)-1-isopropyl-1H-pyrazole-4-carboxamide]
BTK degradation (%) 1 nM: 54.0%
BTK degradation (%) 10 nM: 95.0%
BTK degradation (%) 100 nM: 99.5%

Cc1cc(-c2ccnc(Nc3ccc(N4CCN(CC5CCN(c6ccc(NC7CCC(=O)NC7=O)cn6)CC5)CC4)cc3)n2)ccc1CNC(=O)c1cnn(C(C)C)c1 (stereo not drawn) [Example 58, N-(4-(2-((4-(4-((1-(5-((2,6-dioxopiperidin-3-yl)amino)pyridin-2-yl)piperidin-4-yl)methyl)piperazin-1-yl)phenyl)amino)pyrimidin-4-yl)-2-methylbenzyl)-1-isopropyl-1H-pyrazole-4-carboxamide]
BTK degradation (%) 1 nM: 62.0%
BTK degradation (%) 10 nM: 97.5%
BTK degradation (%) 100 nM: 99.0%

Cc1cc(-c2ccnc(Nc3ccc(N4CCN(CC5CCN(c6cccc(NC7CCC(=O)NC7=O)c6)CC5)CC4)cc3)n2)ccc1CNC(=O)c1cnn(C(C)(C)C)c1 (stereo not drawn) [Example 59, 1-(tert-butyl)-N-(4-(2-((4-(4-((1-(3-((2,6-dioxopiperidin-3-yl)amino)phenyl)piperidin-4-yl)methyl)piperazin-1-yl)phenyl)amino)pyrimidin-4-yl)-2-methylbenzyl)-1H-pyrazole-4-carboxamide]
BTK degradation (%) 1 nM: 72.0%
BTK degradation (%) 10 nM: 97.0%
BTK degradation (%) 100 nM: 99.0%

Cc1cc(-c2ccnc(Nc3ccc(N4CCN(CC5CCN(c6ccc(NC7CCC(=O)NC7=O)cn6)CC5)CC4)cc3)n2)ccc1CNC(=O)c1cnn(C(C)(C)C)c1 (stereo not drawn) [Example 60, 1-(tert-butyl)-N-(4-(2-((4-(4-((1-(5-((2,6-dioxopiperidin-3-yl)amino)pyridin-2-yl)piperidin-4-yl)methyl)piperazin-1-yl)phenyl)amino)pyrimidin-4-yl)-2-methylbenzyl)-1H-pyrazole-4-carboxamide]
BTK degradation (%) 1 nM: 58.0%
BTK degradation (%) 10 nM: 96.5%
BTK degradation (%) 100 nM: 99.5%

Cc1cc(-c2ccnc(Nc3ccc(N4CCN(CC5CCN(c6cccc(NC7CCC(=O)NC7=O)c6)CC5)CC4)cc3)n2)ccc1CNC(=O)c1cn(C(C)(C)C)nn1 (stereo not drawn) [Example 61, 1-(tert-butyl)-N-(4-(2-((4-(4-((1-(3-((2,6-dioxopiperidin-3-yl)amino)phenyl)piperidin-4-yl)methyl)piperazin-1-yl)phenyl)amino)pyrimidin-4-yl)-2-methylbenzyl)-1H-1,2,3-triazole-4-carboxamide]
BTK degradation (%) 1 nM: 66.5%
BTK degradation (%) 10 nM: 95.5%
BTK degradation (%) 100 nM: 99.0%

Cc1cc(-c2ccnc(Nc3ccc(N4CCN(CC5CCN(c6ccc(NC7CCC(=O)NC7=O)cn6)CC5)CC4)cc3)n2)ccc1CNC(=O)c1cn(C(C)(C)C)nn1 (stereo not drawn) [Example 62]
BTK degradation (%) 1 nM: 57.0%
BTK degradation (%) 10 nM: 97.5%
BTK degradation (%) 100 nM: 100.0%

Cc1cc(-c2ccnc(Nc3ccc(CN4CCN(CC5CCN(c6cccc(OC7CCC(=O)NC7=O)c6)CC5)CC4)cc3)n2)ccc1CNC(=O)N1CC(OC(C)C)C1 (stereo not drawn) [Example 63, N-(4-(2-((4-((4-((1-(3-((2,6-dioxopiperidin-3-yl)oxy)phenyl)piperidin-4-yl)methyl)piperazin-1-yl)methyl)phenyl)amino)pyrimidin-4-yl)-2-methylbenzyl)-3-isopropoxyazetidine-1-carboxamide]
BTK degradation (%) 1 nM: 29.0%
BTK degradation (%) 10 nM: 83.0%
BTK degradation (%) 100 nM: 97.5%

Cc1cc(-c2ccnc(Nc3ccc(CN4CCN(CC5CCN(c6cccc(NC7CCC(=O)NC7=O)c6)CC5)CC4)cc3)n2)ccc1CNC(=O)N1CC(OC(C)C)C1 (stereo not drawn) [Example 64, N-(4-(2-((4-((4-((1-(3-((2,6-dioxopiperidin-3-yl)amino)phenyl)piperidin-4-yl)methyl)piperazin-1-yl)methyl)phenyl)amino)pyrimidin-4-yl)-2-methylbenzyl)-3-isopropoxyazetidine-1-carboxamide]
BTK degradation (%) 1 nM: 43.0%
BTK degradation (%) 10 nM: 92.5%
BTK degradation (%) 100 nM: 98.5%
